The source of these data is patent publication US12570642B2, “GLP-IR modulating compounds” (Gilead Sciences, Inc., priority 2021, dated 2026).

Sequence of GLP-1R (P43220 24-463): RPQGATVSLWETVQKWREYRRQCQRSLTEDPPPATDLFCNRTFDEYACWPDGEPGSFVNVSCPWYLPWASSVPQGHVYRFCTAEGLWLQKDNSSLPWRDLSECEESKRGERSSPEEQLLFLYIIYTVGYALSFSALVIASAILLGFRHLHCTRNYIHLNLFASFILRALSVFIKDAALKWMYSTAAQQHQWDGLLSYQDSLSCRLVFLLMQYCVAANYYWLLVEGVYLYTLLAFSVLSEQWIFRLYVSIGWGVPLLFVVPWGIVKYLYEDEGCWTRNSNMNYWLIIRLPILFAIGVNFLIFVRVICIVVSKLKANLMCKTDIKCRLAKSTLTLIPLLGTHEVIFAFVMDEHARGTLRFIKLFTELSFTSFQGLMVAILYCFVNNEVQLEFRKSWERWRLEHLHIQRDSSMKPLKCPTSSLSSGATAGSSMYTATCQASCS

The assay addresses GLP-1R (Homo sapiens, UniProt P43220). The experiment in a line: GLP-1R Activation - cAMP Assay. In kind it is cell-based. As to conditions: cAMP increase in CHO cells stably expressing GLP-1R; each compound run on one of the two cAMP assays (Assay 1 or Assay 2, not specified). In outline: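 cAMP rise read by HTRF after 30 min agonist exposure (10-point titration, 37 °C) in HBSS/20 mM Hepes/0.1% BSA, following 1 h pre-incubation. Cells: stable GLP-1R CHO line, 1,000/well, seeded overnight. Sigmoidal fit of response vs log concentration gives EC50.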
The compound `CC1(C)COC[C@H]1n1c(Cc2cc(F)c(-c3cccc(OCc4cc(F)c(F)cc4F)n3)cc2F)nc2ccc(C(=O)O)cc21` [Example 455, (S)-2-(2,5-difluoro-4-(6-((2,4,5-trifluorobenzyl)oxy)pyridin-2-yl)benzyl)-1-(4,4-dimethyltetrahydrofuran-3-yl)-1H-benzo[d]imidazole-6-carboxylic acid] displayed an EC50 of 0.126 nM.

Regarding `Cc1cc(F)c(COc2cccc(-c3cc(F)c(Cc4nc5ccc(C(=O)O)cc5n4[C@@H]4COCC4(C)C)cc3F)n2)cc1F` [Example 456, (S)-2-(4-(6-((2,5-difluoro-4-methylbenzyl)oxy)pyridin-2-yl)-2,5-difluorobenzyl)-1-(4,4-dimethyltetrahydrofuran-3-yl)-1H-benzo[d]imidazole-6-carboxylic acid], the half-maximal effective concentration (EC50) worked out at 0.332 nM. `CC1(C)COC[C@H]1n1c(Cc2cc(F)c(-c3cccc(OCc4ccc(F)c(F)c4)n3)cc2F)nc2ccc(C(=O)O)cc21` [Example 457, (S)-2-(4-(6-((3,4-difluorobenzyl)oxy)pyridin-2-yl)-2,5-difluorobenzyl)-1-(4,4-dimethyltetrahydrofuran-3-yl)-1H-benzo[d]imidazole-6-carboxylic acid] showed an EC50 of 0.157 nM. With `CC1(C)COC[C@H]1n1c(Cc2cc(F)c(-c3cccc(OCc4c(F)cc(F)cc4F)n3)cc2F)nc2ccc(C(=O)O)cc21` [Example 458, (S)-2-(2,5-difluoro-4-(6-((2,4,6-trifluorobenzyl)oxy)pyridin-2-yl)benzyl)-1-(4,4-dimethyltetrahydrofuran-3-yl)-1H-benzo[d]imidazole-6-carboxylic acid] the figure was 0.315 nM. As for `Cc1cc(F)c(COc2cccc(-c3cc(F)c(Cc4nc5ccc(C(=O)O)cc5n4[C@@H]4COCC4(C)C)cc3F)n2)cc1Cl` [Example 459, (S)-2-(4-(6-((5-chloro-2-fluoro-4-methylbenzyl)oxy)pyridin-2-yl)-2,5-difluorobenzyl)-1-(4,4-dimethyltetrahydrofuran-3-yl)-1H-benzo[d]imidazole-6-carboxylic acid], a half-maximal response (EC50) required 0.8 nM. Under `CC1(C)COC[C@H]1n1c(Cc2cc(F)c(-c3cccc(OCc4ccc(C#N)cc4Cl)n3)cc2F)nc2ccc(C(=O)O)cc21` [Example 460, (S)-2-(4-(6-((2-chloro-4-cyanobenzyl)oxy)pyridin-2-yl)-2,5-difluorobenzyl)-1-(4,4-dimethyltetrahydrofuran-3-yl)-1H-benzo[d]imidazole-6-carboxylic acid] stands 0.096 nM. Take `COc1cc(C#N)ccc1COc1cccc(-c2cc(F)c(Cc3nc4ccc(C(=O)O)cc4n3[C@@H]3COCC3(C)C)cc2F)n1` [Example 461, (S)-2-(4-(6-((4-cyano-2-methoxybenzyl)oxy)pyridin-2-yl)-2,5-difluorobenzyl)-1-(4,4-dimethyltetrahydrofuran-3-yl)-1H-benzo[d]imidazole-6-carboxylic acid]: the half-maximal effective concentration (EC50) stood at 0.067 nM. As to `COc1cc(Cl)ccc1COc1cccc(-c2cc(F)c(Cc3nc4ccc(C(=O)O)cc4n3[C@@H]3COCC3(C)C)cc2F)n1` [Example 462, (S)-2-(4-(6-((4-chloro-2-methoxybenzyl)oxy)pyridin-2-yl)-2,5-difluorobenzyl)-1-(4,4-dimethyltetrahydrofuran-3-yl)-1H-benzo[d]imidazole-6-carboxylic acid], the 50% effective concentration (EC50) is 0.141 nM. The compound `Cc1ccc(COc2cccc(-c3cc(F)c(Cc4nc5ccc(C(=O)O)cc5n4[C@@H]4COCC4(C)C)cc3F)n2)c(F)c1` [Example 463, (S)-2-(2,5-difluoro-4-(6-((2-fluoro-4-methylbenzyl)oxy)pyridin-2-yl)benzyl)-1-(4,4-dimethyltetrahydrofuran-3-yl)-1H-benzo[d]imidazole-6-carboxylic acid] displayed an EC50 of 0.209 nM. With `CC1(C)COC[C@H]1n1c(Cc2cc(F)c(-c3cccc(OCc4ccc(F)cc4Cl)n3)cc2F)nc2ccc(C(=O)O)cc21` [Example 464, (S)-2-(4-(6-((2-chloro-4-fluorobenzyl)oxy)pyridin-2-yl)-2,5-difluorobenzyl)-1-(4,4-dimethyltetrahydrofuran-3-yl)-1H-benzo[d]imidazole-6-carboxylic acid] the figure was 0.172 nM.
